Measurements: patent publication US11642388B2, “Antidepressant compound preparation and preparation method thereof” (Chenland Nutritionals Inc., priority 2020, dated 2023)

Columns and labels:
Assay type in all cases: in vivo
[1] = system: SPF grade male C57BL/6J mice; experiment: Mouse forced swimming test (Embodiment 9); settings: 3.33 mg/kg by gavage daily for one month, 5 minutes formal test, x ± SE
Protocol: (§1) 72 SPF grade male C57BL/6J mice which are 20±2 g in weight are selected. 6 mice are kept in each cage, free to forage and drink, and kept in a room with controlled light, temperature and humidity: the temperature is 21° C.±2° C., the humidity is 50%±10%, and the light and dark cycle is 12 hours/12 hours (light on at 20:00, light off at 8:00). All animal experiments are carried out in accordance with the guidelines on laboratory animal welfare and use issued by NIH.
(§2) After arrival, the mice are allowed to acclimate for one week before entering experiments.
(§3) The mice in the normal group are given the same volume of purified water by gavage, and the gavage doses for the mice in other groups are shown in the result tables. The mice are treated by gavage at a fixed time (9:00) every morning with a gavage volume of 0.1 mL·10 g^−1, and the administration is lasted for one month. A behavioral test is performed 1 hour after the last gavage.
When forced to swim, all the animals are respectively put in a plexiglass cylinder with a water temperature of 23° C.±1° C. and a water depth of 20 cm. After 15 minutes, the animals are transferred to a dry environment with a temperature of 30° C. and kept for 30 minutes (pretest). After 24 hours, the mice are put into the plexiglass cylinder again and kept for 5 minutes (formal test). A video camera is used during the test for recording. […]

[2] = system: SPF grade male C57BL/6J mice; experiment: Mouse open field test; settings: 3.33 mg/kg by gavage daily for one month; 6 minutes; x ± SE
Protocol: The test is performed in an open field box with a length of 50 cm, a width of 50 cm, and a depth of 50 cm. The bottom surface of the open field box is equally divided into 9 squares, the area right in the middle is a central area, and the remaining areas are peripheral areas. The bottom and four sides of the open field box are all white. The test is performed in a quiet and weak red light environment. […] The total movement distance of the mice, the movement distance in the central area and the number of standing-uprights are recorded.

[3] = system: SPF grade male C57BL/6J mice; experiment: Mouse tail suspension test; settings: 3.33 mg/kg by gavage daily for one month, last 4 minutes of 6 minutes, x ± SE
Protocol: as §1, §2, §3
In the tail suspension test, medical tape is used to suspend each mouse at ⅓ of the tail tip on a tail suspension device. The mice are suspended vertically with the heads facing camera lens, and are about 30 cm above the ground. The immobility time of each group of mice in the tail suspension test is recorded by a video camera for 6 minutes, and the tail suspension immobility time of the mice is calculated according to the last 4 minutes. […]

CNCCC(Oc1ccc(C(F)(F)F)cc1)c1ccccc1 (stereo not drawn) [Fluoxetine, fluoxetine]
Number of floating immobilities [1]: 54.64 ± 2.704 | Number of floating immobilities ([1]; listed as fluoxetine): significantly lower | Number of standing-uprights [2]: 29.20 ± 2.133 | Total movement distance [2]: 18435 ± 950.6 mm | Tail suspension immobility time [3]: 59.62 ± 6.270 s | Tail suspension immobility time ([3]; listed as fluoxetine): significantly shorter
